Test results: patent US5602099A, “δ opioid receptor antagonists” (Aktiebolaget Astra, priority 1993, dated 1997)
Read-outs that look alike come from different tables or passages of the source. Peptide text beside a SMILES is read from it.

Legend:
[1] = biological target: T1, δ opioid receptor (Rattus norvegicus, UniProt P33533); experiment: δ opioid receptor binding assay, displacement of δ-selective radioligand from rat brain membranes; conditions: for Ki^μ /Ki^δ: δ-selectivity ratio
T1 construct: Male Sprague-Dawley rats (300-350 g) from the Canadian Breeding Laboratories were decapitated and after removal of the cerebellum the brains were homogenized; from tissue; host or cells: rat brain (without cerebellum) membranes, male Sprague-Dawley
Excerpt: (§1) In the case of κ-ligands guinea pig brain homogenates were used, since the relative proportion of κ-binding sites is higher in guinea pig brain than in rat brain. The experimental procedure being used in our laboratory represents a modified version of the binding assay described by Pasternak et al. (Mol. Pharmacol. 11, 340-351, (1975)). Male Sprague-Dawley rats (300-350 g) from the Canadian Breeding Laboratories were decapitated and after removal of the cerebellum the brains were homogenized in 30 volumes of ice-cold standard buffer (50 mM Tris-HCl, pH 7.7). After centrifugation at 30,000×g for 30 min at 4° C. the membranes were reconstituted in the original volume of standard buffer and incubated for 30 min at 37° C. (to realease bound endogenous ligands). […] The incubation was terminated by filtration through Batman GF/B filters under vacuum at 4° C. Following two washings with 5 ml portions of ice-cold standard buffer the filters were transferred to scintillation vials and treated with 1 ml Protosol (New England Nuclear) for 30 min prior to the addition of 0.5 ml acetic acid and 10 ml Aquasol (New England Nuclear). After shaking for 30 min the vials were counted at an efficiency of 40-45%. All experiments were performed in duplicates and repeated at least three times. […] Values of half-maximal inhibition (IC50) of specific binding were obtained graphically from semilogarithmic plots. From the measured IC50-values, binding inhibition constants (Ki) were then calculated based on Cheng and Prusoff's equation (Biochem, Pharmacol. 22, 3099-3102 (1973)). Ratios of the Ki -values in the μ-, δ- and κ-representative binding assays are a measure of the receptor selectivety of the compound under investigation (e.g. Ki^μ /Ki^δ indicates the selectivity for δ-receptors versus μ-receptors).

[2] = biological target: T2, μ opioid receptor (Rattus norvegicus, UniProt P33535); experiment: μ opioid receptor binding assay, displacement of [3H]DAMGO from rat brain membranes
T2 construct: Male Sprague-Dawley rats (300-350 g) from the Canadian Breeding Laboratories were decapitated and after removal of the cerebellum the brains were homogenized; from tissue; host or cells: rat brain (without cerebellum) membranes, male Sprague-Dawley
Excerpt: as §1

[3] = biological target: T3, δ opioid receptors (Mus musculus, UniProt P32300); experiment: Mouse vas deferens (MVD) bioassay, antagonism of electrically evoked contraction inhibition by δ-selective agonists; type: tissue-based; conditions: MVD assay, means of 3-8 determinations
T3 construct: Bioassays Using Isolated Organ Preparations; from tissue; host or cells: mouse vas deferens (isolated organ)
Excerpt: a) Biosassys based on inhibition of electrically evoked contractions of the mouse vas deferens (MVD) and of the guinea pig ileum (GPI). In the GPI assay the opioid effect is primarily mediated by μ opioid receptors, whereas in the MVD assay the inhibition of the contractions is mostly due to interaction with δ opioid receptors.
The GPI and MVD bioassays were carded out as reported in P. W. Schiller et al., Biochem. Biophys. Res. Commun 85, 1332-1338 (1978) and J. Di Maio et al., J. Med. Chem. 25, 1432-1438 (1982). A log dose-response curve was determind with [Leu^5 ]enkephalin as standard for each ileum and vas preparation, and IC50 values of the compounds being tested were normalized according to A. A Waterfield et al., Eur. J. Pharmacol. 58, 11-18 (1979). […] These determinations were made with the MVD assay, using three different δ-selective agonists ([Leu^5 ] enkephalin, DPDPE and [D-Ala^2 ]deltorphin I].

[4] = Ke (nM) against DPDPE, δ agonist DPDPE
[5] = Ke (nM) against [D-Ala2]deltorphin I, δ agonist [D-Ala2]deltorphin I
[6] = Ke (nM) against [Leu5]Enkephalin, δ agonist [Leu5]enkephalin
[7] = rat brain membranes, means of 3 determinations, read-out: Ki^.xi.
[8] = rat brain membranes, means of 3 determinations, read-out: Ki^μ
[9] = δ agonist DPDPE, read-out: Ke (nM) against DPDPE
[10] = δ agonist [D-Ala2]deltorphin I, read-out: Ke (nM) against [D-Ala2]deltorphin I
[11] = δ agonist [Leu5]enkephalin, read-out: Ke (nM) against [Leu5]Enkephalin

T2 sequence (P33535 whole entry): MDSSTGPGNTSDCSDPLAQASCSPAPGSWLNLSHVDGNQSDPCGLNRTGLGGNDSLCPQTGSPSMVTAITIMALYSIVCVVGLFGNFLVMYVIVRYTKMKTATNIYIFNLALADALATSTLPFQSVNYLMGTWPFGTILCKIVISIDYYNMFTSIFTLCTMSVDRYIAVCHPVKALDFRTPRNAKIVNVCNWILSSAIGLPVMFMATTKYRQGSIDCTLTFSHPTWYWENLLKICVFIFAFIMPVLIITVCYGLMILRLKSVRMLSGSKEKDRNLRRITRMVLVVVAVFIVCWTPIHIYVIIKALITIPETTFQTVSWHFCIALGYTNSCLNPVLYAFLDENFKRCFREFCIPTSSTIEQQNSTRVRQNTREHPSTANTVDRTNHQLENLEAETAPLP
T1 sequence (P33533 whole entry): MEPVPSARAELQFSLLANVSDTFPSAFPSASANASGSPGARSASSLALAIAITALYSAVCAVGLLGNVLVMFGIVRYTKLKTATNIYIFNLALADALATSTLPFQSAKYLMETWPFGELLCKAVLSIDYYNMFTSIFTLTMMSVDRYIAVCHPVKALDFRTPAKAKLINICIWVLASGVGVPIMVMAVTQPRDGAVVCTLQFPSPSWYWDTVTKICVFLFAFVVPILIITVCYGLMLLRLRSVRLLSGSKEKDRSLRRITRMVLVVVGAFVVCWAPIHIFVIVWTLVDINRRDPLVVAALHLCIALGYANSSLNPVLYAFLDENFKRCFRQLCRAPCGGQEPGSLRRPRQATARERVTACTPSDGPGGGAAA
T3 sequence (P32300 whole entry): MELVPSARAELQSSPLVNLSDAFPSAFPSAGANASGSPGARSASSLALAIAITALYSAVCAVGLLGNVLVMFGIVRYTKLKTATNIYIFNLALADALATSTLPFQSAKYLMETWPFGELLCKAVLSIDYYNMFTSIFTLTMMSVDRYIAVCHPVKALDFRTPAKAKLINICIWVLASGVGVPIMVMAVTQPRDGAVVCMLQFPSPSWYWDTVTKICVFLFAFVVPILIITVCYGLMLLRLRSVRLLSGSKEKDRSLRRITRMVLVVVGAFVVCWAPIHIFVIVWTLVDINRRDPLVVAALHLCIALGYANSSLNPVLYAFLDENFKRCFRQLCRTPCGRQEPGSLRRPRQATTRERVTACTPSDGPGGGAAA

SMILES	Ki [1]	Ki^μ /Ki^δ [1]	Ki [2]	Kb [3, 4]	Kb [3, 5]	Kb [3, 6]	Ki [1, 7]	Ki [2, 8]	δ-selectivity, times less than the δ antagonists of this application ([1]; comparison with the δ antagonists described in this patent application)	Kb [3, 9]	Kb [3, 10]	Kb [3, 11]
CC(C)[C@H](NC(=O)[C@H](Cc1ccccc1)NC(=O)[C@H](Cc1ccccc1)NC(=O)[C@@H]1Cc2ccccc2CN1C(=O)[C@@H](N)Cc1ccc(O)cc1)C(=O)N[C@H](C(=O)NCC(N)=O)C(C)C [HTyrTicPhePheValValGlyNH2, H-Tyr-Tic-Phe-Phe-Val-Val-Gly-NH2] (HELM PEPTIDE1{Y.[Tic].F.F.V.V.G.[am]}$$$$V2.0)	1.43 nM	2300	3290 nM	6.36 nM	4.96 nM	6.48 nM	–	–	–	–	–	–
NC(=O)[C@H](CO)NC(=O)[C@@H]1CCCN1C(=O)[C@H](Cc1ccc(O)cc1)NC(=O)[C@H](Cc1ccccc1)NC(=O)[C@H](Cc1ccccc1)NC(=O)[C@@H]1Cc2ccccc2CN1C(=O)[C@@H](N)Cc1ccc(O)cc1 [HTyrTicPhePheTyrProSerNH2, H-Tyr-Tic-Phe-Phe-Tyr-Pro-Ser-NH2] (HELM PEPTIDE1{Y.[Tic].F.F.Y.P.S.[am]}$$$$V2.0)	0.9 nM	731	658 ± 136 nM	4.63 nM	3.9 nM	4.78 nM	–	–	–	–	–	–
N[C@@H](Cc1ccc(O)cc1)C(=O)N1Cc2ccccc2C[C@H]1C(=O)N[C@@H](Cc1c[nH]cn1)C(=O)N[C@@H](Cc1ccccc1)C(=O)O [HTyrTicHisPheOH, H-Tyr-Tic-His-Phe-OH] (HELM PEPTIDE1{Y.[Tic].H.F}$$$$V2.0)	1.48 nM	11500	17000 nM	18.2 nM	18.7 nM	20.1 nM	–	–	–	–	–	–
CCCCCCN[C@@H](Cc1ccc(O)cc1)C(=O)N1Cc2ccccc2C[C@H]1C(=O)N[C@@H](Cc1ccccc1)C(=O)N[C@@H](Cc1ccccc1)C(=O)O [Tyr(N^α Hex)-TicPhePheOH, Tyr(N^α Hex)-Tic-Phe-Phe-OH]	0.951 nM	–	1080 nM	4.28 nM	10.6 nM	9.37 nM	–	–	–	–	–	–
N[C@@H](Cc1ccc(O)cc1)C(=O)N1Cc2ccccc2C[C@H]1C(=O)N[C@@H](Cc1ccccc1)C(=O)O [HTyrTicPheOH, H-Tyr-Tic-Phe-OH] (HELM PEPTIDE1{Y.[Tic].F}$$$$V2.0)	–	141	–	16.1 nM	12.6 nM	11.7 nM	9.07 nM	1280 nM	–	–	–	–
N=C(N)NCCC[C@H](N)C(=O)N[C@@H](Cc1ccc(O)cc1)C(=O)N1Cc2ccccc2C[C@H]1C(=O)N[C@@H](Cc1ccccc1)C(=O)N[C@@H](Cc1ccccc1)C(N)=O [HArgTyrTicPhePheNH2, H-Arg-Tyr-Tic-Phe-Phe-NH2] (HELM PEPTIDE1{R.Y.[Tic].F.F.[am]}$$$$V2.0)	–	22.3	–	–	–	–	4.79 nM	107 ± 2 nM	–	–	–	–
NC(=O)[C@H](Cc1ccccc1)NC(=O)[C@H](Cc1c[nH]c2ccccc12)NC(=O)[C@@H]1Cc2ccccc2CN1C(=O)[C@@H](N)Cc1ccc(O)cc1 [HTyrTicTrpPheNH2, H-Tyr-Tic-Trp-Phe-NH2] (HELM PEPTIDE1{Y.[Tic].W.F.[am]}$$$$V2.0)	–	709	–	4.65 nM	2.31 nM	3.24 nM	–	–	–	–	–	–
N[C@@H](Cc1ccc(O)cc1)C(=O)N1Cc2ccccc2C[C@H]1C(=O)N[C@@H](Cc1c[nH]c2ccccc12)C(=O)N[C@@H](Cc1ccccc1)C(=O)O [HTyrTicTrpPheOH, H-Tyr-Tic-Trp-Phe-OH] (HELM PEPTIDE1{Y.[Tic].W.F}$$$$V2.0)	–	5950	–	2.56 nM	1.65 nM	2.37 nM	–	–	–	–	–	–
CN[C@@H](Cc1ccc(O)cc1)C(=O)N1Cc2ccccc2C[C@H]1C(=O)N[C@@H](Cc1ccccc1)C(=O)N[C@@H](Cc1ccccc1)C(=O)O [Tyr(N^α Me)-TicPhePheOH, Tyr(N^α Me)-Tic-Phe-Phe-OH] (HELM PEPTIDE1{[meY].[Tic].F.F}$$$$V2.0)	1.29 nM	–	13400 nM	1.22 nM	0.436 nM	1.01 nM	–	–	–	–	–	–
C=CCN(CC=C)[C@@H](Cc1ccc(O)cc1)C(=O)NC(C)(C)C(=O)NC(C)(C)C(=O)N[C@@H](Cc1ccccc1)C(=O)N[C@@H](CC(C)C)C(=O)O [ICI 174864, N,N-diallyl-Tyr-Aib-Aib-Phe-Leu-OH, reference compound] (HELM PEPTIDE1{[C=CCN(CC=C)[C@@H](Cc1ccc(O)cc1)C(=O)[*:2]].[Aib].[Aib].F.L}$$$$V2.0)	–	–	–	–	–	–	–	–	10-300 times	–	–	–
N[C@@H](Cc1ccc(O)cc1)C(=O)N1Cc2ccccc2C[C@H]1C(=O)N[C@H](C(=O)N[C@@H](Cc1ccccc1)C(=O)O)c1ccccc1 [HTyrTicPhgPheOH, H-Tyr-Tic-Phg-Phe-OH] (HELM PEPTIDE1{Y.[Tic].[Phg].F}$$$$V2.0)	3.01 nM	9630	29000 nM	21.5 nM	8.31 nM	13.8 nM	–	–	–	–	–	–
Cc1cc(O)cc(C)c1C[C@H](N)C(=O)N1Cc2ccccc2C[C@H]1CN[C@@H](Cc1ccccc1)C(=O)N[C@@H](Cc1ccccc1)C(=O)O [HDmtTic.psi.[CH2NH]PhePheOH, H-Dmt-Tic.PSI.[CH2 --NH]Phe-Phe-OH]	1.7 nM	–	95.5 nM	0.196 nM	0.157 nM	0.259 nM	–	–	–	–	–	–
N[C@@H](Cc1ccc(O)cc1)C(=O)N1Cc2ccccc2C[C@H]1C(=O)N[C@@H](Cc1cccc2ccccc12)C(=O)N[C@@H](Cc1ccccc1)C(=O)O [HTyrTic-1-NalPheOH, H-Tyr-Tic-1-Nal-Phe-OH] (HELM PEPTIDE1{Y.[Tic].[O=C([C@H](Cc1cccc2ccccc12)N[*:1])[*:2]].F}$$$$V2.0)	1.14 nM	982	1120 nM	–	–	–	–	–	–	–	–	–
CN(C[C@@H]1Cc2ccccc2CN1C(=O)[C@@H](N)Cc1ccc(O)cc1)[C@@H](Cc1ccccc1)C(=O)N[C@@H](Cc1ccccc1)C(=O)O [HTyrTic.psi.[CH2NCH3]PhePheOH, H-Tyr-Tic.PSI.[CH2 --NCH3 ]Phe-Phe-OH]	–	–	–	–	–	–	0.842 nM	13400 nM	–	4.76 nM	2.89 nM	6.28 nM
NC(=O)[C@H](Cc1c[nH]c2ccccc12)NC(=O)[C@H](Cc1ccccc1)NC(=O)[C@@H]1Cc2ccccc2CN1C(=O)[C@@H](N)Cc1ccc(O)cc1 [HTyrTicPheTrpNH2, H-Tyr-Tic-Phe-Trp-NH2] (HELM PEPTIDE1{Y.[Tic].F.W.[am]}$$$$V2.0)	–	258	–	41.3 nM	38.6 nM	49.5 nM	–	–	–	–	–	–
N[C@@H](Cc1ccc(O)cc1)C(=O)N1Cc2ccccc2C[C@H]1CN[C@@H](Cc1ccccc1)C(=O)O [HTyrTic-.psi.[CH2NH]PheOH, H-Tyr-Tic.PSI.[CH2 -NH]Phe-OH]	–	–	–	–	–	–	1.94 nM	10800 nM	–	9.06 nM	8.24 nM	9.12 nM
N[C@@H](Cc1ccc(O)cc1)C(=O)N1Cc2ccccc2C[C@H]1C(=O)N[C@@H](Cc1ccc2ccccc2c1)C(=O)N[C@@H](Cc1ccccc1)C(=O)O [HTyrTic-2-NalPheOH, H-Tyr-Tic-2-Nal-Phe-OH] (HELM PEPTIDE1{Y.[Tic].[O=C([C@H](Cc1ccc2ccccc2c1)N[*:1])[*:2]].F}$$$$V2.0)	1.31 nM	4830	6330 nM	4.41 nM	4.17 nM	2.64 nM	–	–	–	–	–	–
NC(=O)[C@H](Cc1ccccc1)NC(=O)[C@@H]1Cc2ccccc2CN1C(=O)[C@@H](N)Cc1ccc(O)cc1 [HTyrTicPheNH2, H-Tyr-Tic-Phe-NH2] (HELM PEPTIDE1{Y.[Tic].F.[am]}$$$$V2.0)	–	52.0	–	96.8 nM	58.9 nM	43.9 nM	–	–	–	–	–	–
